Patent US10670605B2, “Cysteine reactive probes and uses thereof” (The Scripps Research Institute, priority 2015, dated 2020)
Where a name gives a salt, the structure may show the parent alone.

What was measured:
Test in all cases: isoTOP-ABPP of compound-treated primary human T cells
Format in all cases: cell-based
[1] = biological target: T1, Cys residues in primary human T cells (Homo sapiens, UniProt Q9Y277)
T1 sequence (Q9Y277 1-283): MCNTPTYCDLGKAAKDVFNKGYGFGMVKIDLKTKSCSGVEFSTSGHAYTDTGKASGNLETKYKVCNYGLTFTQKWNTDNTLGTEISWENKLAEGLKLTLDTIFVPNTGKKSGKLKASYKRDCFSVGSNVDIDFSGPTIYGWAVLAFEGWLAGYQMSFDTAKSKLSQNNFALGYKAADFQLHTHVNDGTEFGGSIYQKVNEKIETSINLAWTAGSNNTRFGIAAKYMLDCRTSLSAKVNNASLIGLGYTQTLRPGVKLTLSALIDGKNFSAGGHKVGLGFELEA

[2] = biological target: Cys residues in primary human T cells (Homo sapiens, UniProt P18583); conditions: SON C92 (P18583)
Chain of Cys residues in primary human T cells (Homo sapiens, UniProt P18583) (P18583 whole entry): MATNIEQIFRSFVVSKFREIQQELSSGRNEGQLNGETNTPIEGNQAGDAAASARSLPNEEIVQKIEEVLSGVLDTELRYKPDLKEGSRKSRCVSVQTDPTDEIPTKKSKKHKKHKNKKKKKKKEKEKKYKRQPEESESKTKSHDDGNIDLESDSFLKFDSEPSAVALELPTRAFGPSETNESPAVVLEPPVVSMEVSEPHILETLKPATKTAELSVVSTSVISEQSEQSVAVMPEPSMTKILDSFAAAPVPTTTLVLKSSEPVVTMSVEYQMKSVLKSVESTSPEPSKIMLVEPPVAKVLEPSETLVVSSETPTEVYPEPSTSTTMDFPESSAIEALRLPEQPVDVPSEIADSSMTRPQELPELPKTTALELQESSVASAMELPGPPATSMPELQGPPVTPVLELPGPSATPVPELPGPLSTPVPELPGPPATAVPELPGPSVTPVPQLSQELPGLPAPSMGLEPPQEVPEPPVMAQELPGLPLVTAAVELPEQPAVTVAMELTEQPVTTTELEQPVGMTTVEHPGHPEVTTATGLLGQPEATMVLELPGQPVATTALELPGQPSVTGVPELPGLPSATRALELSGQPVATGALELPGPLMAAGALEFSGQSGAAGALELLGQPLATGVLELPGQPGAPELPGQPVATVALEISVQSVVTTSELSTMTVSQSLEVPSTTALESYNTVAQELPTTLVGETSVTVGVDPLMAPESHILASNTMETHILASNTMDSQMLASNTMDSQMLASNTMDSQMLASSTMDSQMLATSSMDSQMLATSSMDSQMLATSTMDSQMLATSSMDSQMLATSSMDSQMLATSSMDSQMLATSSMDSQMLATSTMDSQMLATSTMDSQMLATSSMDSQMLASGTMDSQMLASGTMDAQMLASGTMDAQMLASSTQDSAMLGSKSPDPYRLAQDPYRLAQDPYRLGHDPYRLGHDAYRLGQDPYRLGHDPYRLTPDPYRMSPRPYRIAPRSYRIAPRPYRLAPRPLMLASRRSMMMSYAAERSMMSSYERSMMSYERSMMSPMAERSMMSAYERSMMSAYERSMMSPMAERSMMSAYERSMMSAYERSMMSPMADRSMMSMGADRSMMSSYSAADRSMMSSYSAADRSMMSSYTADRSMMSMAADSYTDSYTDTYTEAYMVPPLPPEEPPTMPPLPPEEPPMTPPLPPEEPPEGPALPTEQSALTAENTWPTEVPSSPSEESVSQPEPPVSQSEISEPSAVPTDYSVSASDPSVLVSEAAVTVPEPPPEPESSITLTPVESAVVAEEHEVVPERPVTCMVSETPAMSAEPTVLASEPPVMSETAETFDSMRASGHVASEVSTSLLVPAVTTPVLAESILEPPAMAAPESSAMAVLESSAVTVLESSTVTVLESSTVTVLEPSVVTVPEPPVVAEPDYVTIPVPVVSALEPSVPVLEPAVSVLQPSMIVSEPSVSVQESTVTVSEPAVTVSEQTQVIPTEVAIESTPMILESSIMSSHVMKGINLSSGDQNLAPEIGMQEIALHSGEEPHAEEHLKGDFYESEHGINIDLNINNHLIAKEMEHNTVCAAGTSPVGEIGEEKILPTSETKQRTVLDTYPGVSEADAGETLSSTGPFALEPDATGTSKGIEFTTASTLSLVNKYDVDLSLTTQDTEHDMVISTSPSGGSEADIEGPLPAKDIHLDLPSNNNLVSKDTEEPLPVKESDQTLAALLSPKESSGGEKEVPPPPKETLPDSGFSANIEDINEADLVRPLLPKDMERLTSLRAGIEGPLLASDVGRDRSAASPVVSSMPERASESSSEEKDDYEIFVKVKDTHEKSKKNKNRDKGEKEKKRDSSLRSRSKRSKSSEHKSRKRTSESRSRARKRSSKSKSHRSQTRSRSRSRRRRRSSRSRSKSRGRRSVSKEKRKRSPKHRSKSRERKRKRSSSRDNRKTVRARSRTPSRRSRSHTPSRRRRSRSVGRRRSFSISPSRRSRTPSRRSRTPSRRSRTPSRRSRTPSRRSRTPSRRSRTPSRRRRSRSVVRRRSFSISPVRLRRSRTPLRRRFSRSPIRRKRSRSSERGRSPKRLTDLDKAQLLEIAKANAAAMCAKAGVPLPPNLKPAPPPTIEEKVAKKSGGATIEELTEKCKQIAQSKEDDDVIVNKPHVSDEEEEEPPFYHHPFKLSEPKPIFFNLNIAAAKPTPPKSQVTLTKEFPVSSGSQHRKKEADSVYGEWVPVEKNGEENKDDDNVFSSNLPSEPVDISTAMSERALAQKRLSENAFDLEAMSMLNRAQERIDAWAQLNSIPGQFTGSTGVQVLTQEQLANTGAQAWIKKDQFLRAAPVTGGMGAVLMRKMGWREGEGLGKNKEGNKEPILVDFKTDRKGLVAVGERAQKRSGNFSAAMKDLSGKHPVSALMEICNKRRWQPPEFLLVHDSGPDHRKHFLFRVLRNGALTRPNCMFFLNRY

[3] = biological target: Cys residues in primary human T cells (Homo sapiens, UniProt Q86YS7); conditions: KIAA0528 C993 (Q86YS7)
Chain of Cys residues in primary human T cells (Homo sapiens, UniProt Q86YS7) (Q86YS7 whole entry): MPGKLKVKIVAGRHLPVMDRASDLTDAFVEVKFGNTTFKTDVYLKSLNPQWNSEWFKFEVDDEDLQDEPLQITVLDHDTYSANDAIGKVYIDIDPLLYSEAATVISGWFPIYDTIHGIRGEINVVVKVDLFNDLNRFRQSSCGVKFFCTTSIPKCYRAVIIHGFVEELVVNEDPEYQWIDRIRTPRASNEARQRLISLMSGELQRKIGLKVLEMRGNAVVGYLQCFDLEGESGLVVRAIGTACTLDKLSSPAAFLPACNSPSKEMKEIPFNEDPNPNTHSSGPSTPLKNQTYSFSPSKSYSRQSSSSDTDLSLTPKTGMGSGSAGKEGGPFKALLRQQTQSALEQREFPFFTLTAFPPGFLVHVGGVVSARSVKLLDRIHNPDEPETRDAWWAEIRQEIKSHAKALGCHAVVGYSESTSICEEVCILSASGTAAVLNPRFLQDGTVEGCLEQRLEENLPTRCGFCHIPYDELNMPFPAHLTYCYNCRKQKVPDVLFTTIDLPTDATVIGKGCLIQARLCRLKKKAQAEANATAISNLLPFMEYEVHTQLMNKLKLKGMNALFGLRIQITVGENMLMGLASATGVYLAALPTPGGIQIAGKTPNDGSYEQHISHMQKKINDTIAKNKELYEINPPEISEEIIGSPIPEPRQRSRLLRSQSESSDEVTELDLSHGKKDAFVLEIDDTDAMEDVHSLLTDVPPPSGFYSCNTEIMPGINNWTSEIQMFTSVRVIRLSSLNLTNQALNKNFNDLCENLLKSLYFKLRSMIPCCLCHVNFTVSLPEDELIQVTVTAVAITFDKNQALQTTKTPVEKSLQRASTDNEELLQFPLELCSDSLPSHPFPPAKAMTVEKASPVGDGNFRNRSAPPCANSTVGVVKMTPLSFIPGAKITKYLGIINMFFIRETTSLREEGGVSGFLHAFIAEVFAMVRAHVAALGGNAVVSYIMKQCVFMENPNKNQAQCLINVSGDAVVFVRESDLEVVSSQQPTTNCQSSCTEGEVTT

[4] = biological target: Cys residues in primary human T cells (Homo sapiens, UniProt O00170); conditions: AIP C122 (O00170)
Chain of Cys residues in primary human T cells (Homo sapiens, UniProt O00170) (O00170 whole entry): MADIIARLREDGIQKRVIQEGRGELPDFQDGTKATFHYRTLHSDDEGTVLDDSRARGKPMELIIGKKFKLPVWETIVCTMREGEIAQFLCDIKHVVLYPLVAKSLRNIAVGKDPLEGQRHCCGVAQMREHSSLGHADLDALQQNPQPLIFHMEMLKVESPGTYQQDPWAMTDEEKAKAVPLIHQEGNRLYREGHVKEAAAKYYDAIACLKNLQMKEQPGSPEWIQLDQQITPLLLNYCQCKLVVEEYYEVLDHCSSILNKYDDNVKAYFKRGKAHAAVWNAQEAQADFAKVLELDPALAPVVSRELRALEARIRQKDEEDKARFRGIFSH

[5] = biological target: Cys residues in primary human T cells (Homo sapiens, UniProt P46109); conditions: CRKL C249 (P46109)
Chain of Cys residues in primary human T cells (Homo sapiens, UniProt P46109) (P46109 whole entry): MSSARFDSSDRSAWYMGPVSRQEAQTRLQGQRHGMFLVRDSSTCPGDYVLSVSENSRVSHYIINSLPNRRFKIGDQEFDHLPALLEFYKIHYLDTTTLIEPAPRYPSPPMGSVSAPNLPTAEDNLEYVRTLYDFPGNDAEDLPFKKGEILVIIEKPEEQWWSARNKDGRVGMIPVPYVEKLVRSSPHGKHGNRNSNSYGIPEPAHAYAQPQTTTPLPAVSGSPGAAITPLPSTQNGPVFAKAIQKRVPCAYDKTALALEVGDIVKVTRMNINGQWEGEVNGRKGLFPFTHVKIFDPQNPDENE

[6] = biological target: T2, Cys residues in primary human T cells (Homo sapiens, UniProt Q13045); conditions: FLU Protein flightless-1 homolog C46 (Q13045)
T2 sequence (Q13045 1-1269): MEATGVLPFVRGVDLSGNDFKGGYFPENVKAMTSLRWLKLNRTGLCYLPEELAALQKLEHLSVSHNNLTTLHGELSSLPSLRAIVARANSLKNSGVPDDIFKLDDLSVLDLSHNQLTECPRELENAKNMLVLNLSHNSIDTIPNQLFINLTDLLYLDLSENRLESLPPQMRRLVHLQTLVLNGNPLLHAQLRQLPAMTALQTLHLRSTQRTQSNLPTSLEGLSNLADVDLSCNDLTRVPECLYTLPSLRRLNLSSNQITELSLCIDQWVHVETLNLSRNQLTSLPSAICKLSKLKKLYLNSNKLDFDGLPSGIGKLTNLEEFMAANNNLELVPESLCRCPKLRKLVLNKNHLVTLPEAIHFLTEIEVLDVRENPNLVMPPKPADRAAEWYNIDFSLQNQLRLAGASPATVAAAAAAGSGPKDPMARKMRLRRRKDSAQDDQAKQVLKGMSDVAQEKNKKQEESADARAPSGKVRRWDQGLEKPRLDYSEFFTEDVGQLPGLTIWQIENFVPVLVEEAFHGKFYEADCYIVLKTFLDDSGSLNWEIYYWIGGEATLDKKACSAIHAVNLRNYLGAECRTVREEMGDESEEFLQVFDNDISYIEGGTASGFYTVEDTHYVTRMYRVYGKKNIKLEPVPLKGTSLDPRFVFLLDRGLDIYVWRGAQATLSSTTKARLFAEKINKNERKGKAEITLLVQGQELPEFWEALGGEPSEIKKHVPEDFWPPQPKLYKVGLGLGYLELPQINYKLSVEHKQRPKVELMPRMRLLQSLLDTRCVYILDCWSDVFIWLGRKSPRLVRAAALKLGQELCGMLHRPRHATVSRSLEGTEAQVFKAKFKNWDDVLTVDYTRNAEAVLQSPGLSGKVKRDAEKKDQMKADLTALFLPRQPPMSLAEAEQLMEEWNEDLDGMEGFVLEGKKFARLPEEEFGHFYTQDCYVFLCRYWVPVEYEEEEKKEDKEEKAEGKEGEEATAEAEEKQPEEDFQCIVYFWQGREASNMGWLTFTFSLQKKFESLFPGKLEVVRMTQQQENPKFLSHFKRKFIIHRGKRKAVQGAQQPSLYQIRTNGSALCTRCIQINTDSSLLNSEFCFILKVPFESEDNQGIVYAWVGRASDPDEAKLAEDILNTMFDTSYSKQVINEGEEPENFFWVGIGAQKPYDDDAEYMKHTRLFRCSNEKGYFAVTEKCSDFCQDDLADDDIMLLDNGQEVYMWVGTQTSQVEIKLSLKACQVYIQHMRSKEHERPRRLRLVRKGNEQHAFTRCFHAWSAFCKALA

COC(=O)/C=C/C(=O)OC [DMF, dimethyl fumarate]
R value (DMSO/DMF) ([1]; VDAC3 C36 (Q9Y277), DMF 50 μM 1h): 3.21
R value (DMSO/DMF) ([1]; VDAC3 C36 (Q9Y277), DMF 50 μM 2h): 3.98
R value (DMSO/DMF) ([1]; VDAC3 C36 (Q9Y277), DMF 50 μM 4h): 4.11
R value (DMSO/DMF) ([1]; VDAC3 C65 (Q9Y277), DMF 10 μM 4h): 1.73
R value (DMSO/DMF) ([1]; VDAC3 C65 (Q9Y277), DMF 25 μM 4h): 5.64
R value (DMSO/DMF) ([1]; VDAC3 C65 (Q9Y277), DMF 50 μM 1h): 3.35
R value (DMSO/DMF) ([1]; VDAC3 C65 (Q9Y277), DMF 50 μM 2h): 7.53
R value (DMSO/DMF) ([1]; VDAC3 C65 (Q9Y277), DMF 50 μM 4h): 15.94
R value (DMSO/DMF) ([2]; DMF 50 μM 1h): 2.5
R value (DMSO/DMF) ([2]; DMF 50 μM 2h): 6.31
R value (DMSO/DMF) ([2]; DMF 50 μM 4h): 4.17
R value (DMSO/DMF) ([3]; DMF 10 μM 4h): 1.4
R value (DMSO/DMF) ([3]; DMF 50 μM 4h): 4.38
R value (DMSO/DMF) ([4]; DMF 50 μM 2h): 3.05
R value (DMSO/DMF) ([4]; DMF 50 μM 4h): 6.14
R value (DMSO/DMF) ([5]; DMF 10 μM 4h): 1.38
R value (DMSO/DMF) ([5]; DMF 50 μM 1h): 2.21
R value (DMSO/DMF) ([5]; DMF 50 μM 2h): 3.21
R value (DMSO/DMF) ([5]; DMF 50 μM 4h): 4.86
R value (DMSO/DMF) ([6]; DMF 10 μM 4h): 1.55
R value (DMSO/DMF) ([6]; DMF 50 μM 1h): 2.05
R value (DMSO/DMF) ([6]; DMF 50 μM 2h): 3.57
R value (DMSO/DMF) ([6]; DMF 50 μM 4h): 4.5
